ChEMBL document CHEMBL4825722, “Discovery of Potent Selective Nonzinc Binding Autotaxin Inhibitor BIO-32546” (ACS Med Chem Lett, 2021)

Legend:
Autotaxin = Autotaxin (Homo sapiens, UniProt Q13822); assay: Inhibition of human ATX assessed as reduction in LPA formation using FS-3 as substrate preincubated for 30 mins followed by substrate addition and measured after 2 hrs by FRET assay
hERG (KCNH2) [1] = molecular target: T1, hERG (KCNH2) (Homo sapiens, UniProt Q12809); assay: Inhibition of human ERG at 1 uM by automated patch-clamp assay relative to control
T1 sequence (Q12809 whole entry): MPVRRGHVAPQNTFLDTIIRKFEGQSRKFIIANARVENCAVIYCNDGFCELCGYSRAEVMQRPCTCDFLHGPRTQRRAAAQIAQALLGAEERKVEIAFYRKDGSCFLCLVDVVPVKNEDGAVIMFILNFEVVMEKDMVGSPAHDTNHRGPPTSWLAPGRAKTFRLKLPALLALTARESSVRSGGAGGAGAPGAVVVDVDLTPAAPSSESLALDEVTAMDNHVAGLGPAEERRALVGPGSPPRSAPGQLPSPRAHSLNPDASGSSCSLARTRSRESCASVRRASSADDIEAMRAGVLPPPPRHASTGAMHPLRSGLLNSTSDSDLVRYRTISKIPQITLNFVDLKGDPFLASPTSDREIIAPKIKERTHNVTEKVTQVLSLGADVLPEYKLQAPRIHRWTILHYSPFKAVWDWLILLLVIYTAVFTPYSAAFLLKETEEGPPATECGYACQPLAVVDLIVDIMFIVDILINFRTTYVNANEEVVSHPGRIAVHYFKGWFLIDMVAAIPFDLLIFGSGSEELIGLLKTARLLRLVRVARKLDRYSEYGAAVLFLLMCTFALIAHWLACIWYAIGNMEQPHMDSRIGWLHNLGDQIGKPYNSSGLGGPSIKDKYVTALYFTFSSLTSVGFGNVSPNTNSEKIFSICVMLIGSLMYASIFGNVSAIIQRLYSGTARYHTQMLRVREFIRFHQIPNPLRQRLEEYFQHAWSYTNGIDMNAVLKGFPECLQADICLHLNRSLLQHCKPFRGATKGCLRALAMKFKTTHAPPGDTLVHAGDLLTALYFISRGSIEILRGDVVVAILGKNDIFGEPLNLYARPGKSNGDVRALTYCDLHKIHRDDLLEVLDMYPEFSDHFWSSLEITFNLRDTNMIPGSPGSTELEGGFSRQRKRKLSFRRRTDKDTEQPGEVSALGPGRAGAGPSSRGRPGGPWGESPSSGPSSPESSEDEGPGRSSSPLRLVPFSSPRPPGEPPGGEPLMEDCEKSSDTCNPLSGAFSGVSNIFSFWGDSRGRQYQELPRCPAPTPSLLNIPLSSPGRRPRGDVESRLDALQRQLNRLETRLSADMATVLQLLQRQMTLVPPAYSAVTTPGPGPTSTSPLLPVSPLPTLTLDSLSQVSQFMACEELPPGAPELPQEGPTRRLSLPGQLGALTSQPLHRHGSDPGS

hERG (KCNH2) [2] = molecular target: T1, hERG (KCNH2); assay: Inhibition of human ERG at 10 uM by automated patch-clamp assay relative to control
[3] = Clearance in rat at 1.0 mg/kg, iv; assay type: ADME, organism-based; details: in vivo, time <=24 hrs
[4] = Clearance in dog at 0.2 mg/kg, iv; assay type: ADME, organism-based, Canis lupus familiaris; details: in vivo
[5] = Clearance in cynomolgus monkey at 0.2 mg/kg, iv; assay type: ADME, organism-based, Macaca fascicularis; details: in vivo
[6] = Volume of distribution at steady state in dog at 0.2 mg/kg, iv; assay type: ADME, organism-based, Canis lupus familiaris; details: in vivo, read-out: Vdss
[7] = Volume of distribution at steady state in cynomolgus monkey at 0.2 mg/kg, iv; assay type: ADME, organism-based, Macaca fascicularis; details: in vivo, read-out: Vdss
[8] = Half life in rat at 1.0 mg/kg, iv; assay type: ADME, organism-based; details: in vivo
[9] = Half life in dog at 0.2 mg/kg, iv; assay type: ADME, organism-based, Canis lupus familiaris; details: in vivo
[10] = AUC (0 to 24 hrs) in rat at 1 mg/kg, iv; assay type: ADME, organism-based; set-up: time < 24 hr, route intravenous, dose 1 mg/kg; details: in vivo
[11] = AUC (0 to 24 hrs) in dog at 0.2 mg/kg, iv; assay type: ADME, organism-based, Canis lupus familiaris; set-up: time < 24 hr, route intravenous, dose 0.2 mg/kg; details: in vivo
[12] = AUC (0 to 24 hrs) in dog at 1.0 mg/kg, po; assay type: ADME, organism-based, Canis lupus familiaris; set-up: time < 24 hr, route oral, dose 1 mg/kg; details: in vivo
[13] = AUC (0 to 24 hrs) in cynomolgus monkey at 0.2 mg/kg, iv; assay type: ADME, organism-based, Macaca fascicularis; set-up: time < 24 hr, route intravenous, dose 0.2 mg/kg; details: in vivo
[14] = AUC (0 to 24 hrs) in cynomolgus monkey at 1.0 mg/kg, po; assay type: ADME, organism-based, Macaca fascicularis; set-up: time < 24 hr, route oral, dose 1 mg/kg; details: in vivo
[15] = Cmax in cynomolgus monkey at 1.0 mg/kg, po; assay type: ADME, organism-based, Macaca fascicularis; set-up: route oral, dose 1 mg/kg; details: in vivo
[16] = Tmax in rat at 10 mg/kg, po; assay type: ADME, organism-based; details: in vivo
[17] = Tmax in dog at 1.0 mg/kg, po; assay type: ADME, organism-based, Canis lupus familiaris; details: in vivo
[18] = Oral bioavailability in rat at 10 mg/kg; assay type: ADME, organism-based; details: in vivo
[19] = Oral bioavailability in cynomolgus monkey at 1.0 mg/kg; assay type: ADME, organism-based, Macaca fascicularis; details: in vivo
[20] = Apparent permeability across apical to basolateral side in human Caco-2 cells incubated for 120 mins by lucifer yellow based LC-MS/MS analysis
[21] = Protein binding in human plasma assessed as unbound fraction at 2 uM by rapid equilibrium dialysis method; assay type: ADME, cell-free
Cytochrome P450 2C19 = Cytochrome P450 2C19 (Homo sapiens, UniProt P33261); assay: Inhibition of CYP2C19 in human liver microsomes incubated for 30 mins in presence of NADPH by LC-MS/MS analysis; assay type: ADME
Sequence of Cytochrome P450 2C19 (P33261 whole entry): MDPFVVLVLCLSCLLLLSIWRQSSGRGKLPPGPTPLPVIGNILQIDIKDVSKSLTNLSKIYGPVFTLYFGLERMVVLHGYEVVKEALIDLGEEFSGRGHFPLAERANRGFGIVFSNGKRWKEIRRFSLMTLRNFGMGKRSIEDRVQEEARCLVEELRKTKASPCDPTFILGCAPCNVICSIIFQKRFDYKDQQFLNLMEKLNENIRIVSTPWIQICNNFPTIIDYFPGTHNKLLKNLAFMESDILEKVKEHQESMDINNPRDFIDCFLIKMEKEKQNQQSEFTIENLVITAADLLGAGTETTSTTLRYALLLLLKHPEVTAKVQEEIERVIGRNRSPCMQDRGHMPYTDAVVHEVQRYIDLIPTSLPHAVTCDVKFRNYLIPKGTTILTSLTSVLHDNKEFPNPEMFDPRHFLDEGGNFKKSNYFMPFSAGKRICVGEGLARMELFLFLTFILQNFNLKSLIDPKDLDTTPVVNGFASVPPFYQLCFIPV

Cytochrome P450 2C9 = Cytochrome P450 2C9 (Homo sapiens, UniProt P11712); assay: Inhibition of CYP2C9 in human liver microsomes incubated for 15 mins in presence of NADPH by LC-MS/MS analysis; assay type: ADME
Sequence of Cytochrome P450 2C9 (P11712 whole entry): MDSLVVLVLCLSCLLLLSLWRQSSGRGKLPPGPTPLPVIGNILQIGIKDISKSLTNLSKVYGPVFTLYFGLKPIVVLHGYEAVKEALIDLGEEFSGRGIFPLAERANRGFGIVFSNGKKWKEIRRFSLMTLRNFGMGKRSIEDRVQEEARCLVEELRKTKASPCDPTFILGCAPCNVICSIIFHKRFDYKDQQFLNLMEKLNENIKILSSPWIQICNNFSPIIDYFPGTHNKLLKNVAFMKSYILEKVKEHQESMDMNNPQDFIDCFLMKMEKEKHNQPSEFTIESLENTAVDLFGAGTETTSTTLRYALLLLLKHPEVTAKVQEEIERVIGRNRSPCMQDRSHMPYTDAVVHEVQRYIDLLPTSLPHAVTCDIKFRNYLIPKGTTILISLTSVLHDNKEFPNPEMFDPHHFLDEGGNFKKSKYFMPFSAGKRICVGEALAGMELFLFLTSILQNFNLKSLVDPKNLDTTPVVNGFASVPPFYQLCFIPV

[22] = Total brain to plasma concentration ratio in rat at 10 mg/kg, po measured after 4 hrs; assay type: ADME, organism-based; details: brain and plasma, read-out: BPR
[23] = Volume of distribution at steady state in C57BL/6 mouse plasma at 2.32 mg/kg; assay type: ADME, organism-based; details: read-out: Vdss
[24] = AUC (0 to 24 hrs) in C57BL/6 mouse brain at 2.32 mg/kg, iv; assay type: ADME, organism-based; set-up: time < 24 hr, route intravenous, dose 2.32 mg/kg
[25] = AUC (0 to 24 hrs) in C57BL/6 mouse plasma at 10 mg/kg, po; assay type: ADME, organism-based; set-up: time < 24 hr, route oral, dose 10 mg/kg
[26] = AUC (0 to 24 hrs) in C57BL/6 mouse brain at 10 mg/kg, po; assay type: ADME, organism-based; set-up: time < 24 hr, route oral, dose 10 mg/kg
[27] = Cmax in C57BL/6 mouse brain at 10 mg/kg, po; assay type: ADME, organism-based; set-up: route oral, dose 10 mg/kg
[28] = Tmax in C57BL/6 mouse brain at 2.32 mg/kg, iv; assay type: ADME, organism-based
[29] = Tmax in C57BL/6 mouse plasma at 10 mg/kg, po; assay type: ADME, organism-based
[30] = Tmax in C57BL/6 mouse brain at 10 mg/kg, po; assay type: ADME, organism-based
[31] = Protein binding in C57BL/6 mouse plasma assessed as unbound fraction; assay type: ADME, cell-free
Rattus norvegicus [32] = assay: Effect on Sprague-Dawley rat CFA inflammatory […] model assessed as reduction in 20:4 LPA level at 0.1 mg/kg, po after 6 hrs by LC-MS/MS analysis; assay type: functional; set-up: scale not given: the % may be the effect or the level left
Rattus norvegicus [33] = assay: Effect on Sprague-Dawley rat CFA inflammatory […] model assessed as reduction in 20:4 LPA level at 10 mg/kg, po after 6 hrs by LC-MS/MS analysis; assay type: functional; set-up: scale not given: the % may be the effect or the level left
Rattus norvegicus [34] = assay: Effect on Sprague-Dawley rat CFA inflammatory […] model assessed as reduction in 20:4 LPA level at 3 mg/kg, po after 6 hrs by LC-MS/MS analysis; assay type: functional; set-up: scale not given: the % may be the effect or the level left
[35] = Drug concentration in rat brain at 10 mg/kg, po after 4 hrs; assay type: ADME, organism-based; details: read-out: Ct
[36] = molecular target: Sphingosine 1-phosphate receptor 3 (Homo sapiens, UniProt Q99500); assay: Inhibition of S1P3 (unknown origin)
Sequence of Sphingosine 1-phosphate receptor 3 (Q99500 whole entry): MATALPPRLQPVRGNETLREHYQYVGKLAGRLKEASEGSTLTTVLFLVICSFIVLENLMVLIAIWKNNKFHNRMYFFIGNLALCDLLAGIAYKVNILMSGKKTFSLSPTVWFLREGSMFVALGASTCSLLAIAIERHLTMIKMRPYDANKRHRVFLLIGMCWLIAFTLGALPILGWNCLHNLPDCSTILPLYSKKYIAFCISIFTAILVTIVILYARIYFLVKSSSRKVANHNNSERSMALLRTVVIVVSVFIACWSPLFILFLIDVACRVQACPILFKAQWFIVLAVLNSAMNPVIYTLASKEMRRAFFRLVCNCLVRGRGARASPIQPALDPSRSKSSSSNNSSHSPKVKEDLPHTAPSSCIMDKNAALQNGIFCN

[37] = molecular target: T2, Sphingosine 1-phosphate receptor 4 (Homo sapiens, UniProt O95977); assay: Inhibition of S1P4 (unknown origin)
T2 sequence (O95977 whole entry): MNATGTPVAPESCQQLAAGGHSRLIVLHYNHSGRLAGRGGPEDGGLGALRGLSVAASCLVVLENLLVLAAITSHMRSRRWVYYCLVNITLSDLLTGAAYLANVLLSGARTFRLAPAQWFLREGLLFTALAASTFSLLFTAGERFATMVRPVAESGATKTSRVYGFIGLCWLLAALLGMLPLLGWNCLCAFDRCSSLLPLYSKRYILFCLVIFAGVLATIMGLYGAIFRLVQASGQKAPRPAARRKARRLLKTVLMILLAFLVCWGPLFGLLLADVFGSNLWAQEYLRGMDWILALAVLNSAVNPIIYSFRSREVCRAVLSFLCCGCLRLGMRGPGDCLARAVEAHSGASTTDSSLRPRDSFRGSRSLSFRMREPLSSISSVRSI

[38] = molecular target: Lysophosphatidic acid receptor 1 (Homo sapiens, UniProt Q92633); assay: Inhibition of LPA1 (unknown origin)
Sequence of Lysophosphatidic acid receptor 1 (Q92633 whole entry): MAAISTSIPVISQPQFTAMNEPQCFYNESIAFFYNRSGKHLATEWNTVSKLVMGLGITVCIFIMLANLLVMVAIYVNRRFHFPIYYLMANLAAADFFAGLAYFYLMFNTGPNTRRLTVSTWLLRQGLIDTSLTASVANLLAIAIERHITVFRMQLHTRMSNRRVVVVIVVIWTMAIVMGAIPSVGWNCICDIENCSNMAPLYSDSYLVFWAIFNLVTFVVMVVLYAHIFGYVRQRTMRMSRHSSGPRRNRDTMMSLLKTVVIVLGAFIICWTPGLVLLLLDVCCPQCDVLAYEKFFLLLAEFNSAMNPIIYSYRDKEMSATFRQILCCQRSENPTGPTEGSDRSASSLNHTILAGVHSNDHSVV

[39] = molecular target: Lysophosphatidic acid receptor 2 (Homo sapiens, UniProt Q9HBW0); assay: Inhibition of LPA2 (unknown origin)
Sequence of Lysophosphatidic acid receptor 2 (Q9HBW0 whole entry): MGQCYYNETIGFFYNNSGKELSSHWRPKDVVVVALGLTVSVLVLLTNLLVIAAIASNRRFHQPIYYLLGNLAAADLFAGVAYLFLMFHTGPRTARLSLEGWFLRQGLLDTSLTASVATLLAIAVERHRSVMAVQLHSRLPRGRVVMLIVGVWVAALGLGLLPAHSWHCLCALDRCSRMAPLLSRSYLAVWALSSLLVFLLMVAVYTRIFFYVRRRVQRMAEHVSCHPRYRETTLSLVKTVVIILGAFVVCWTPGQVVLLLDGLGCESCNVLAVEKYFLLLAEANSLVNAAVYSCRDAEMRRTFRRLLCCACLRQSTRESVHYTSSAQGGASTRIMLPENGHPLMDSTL

[40] = molecular target: Lysophosphatidic acid receptor 5 (Homo sapiens, UniProt Q9H1C0); assay: Inhibition of LPA5 (unknown origin)
Sequence of Lysophosphatidic acid receptor 5 (Q9H1C0 whole entry): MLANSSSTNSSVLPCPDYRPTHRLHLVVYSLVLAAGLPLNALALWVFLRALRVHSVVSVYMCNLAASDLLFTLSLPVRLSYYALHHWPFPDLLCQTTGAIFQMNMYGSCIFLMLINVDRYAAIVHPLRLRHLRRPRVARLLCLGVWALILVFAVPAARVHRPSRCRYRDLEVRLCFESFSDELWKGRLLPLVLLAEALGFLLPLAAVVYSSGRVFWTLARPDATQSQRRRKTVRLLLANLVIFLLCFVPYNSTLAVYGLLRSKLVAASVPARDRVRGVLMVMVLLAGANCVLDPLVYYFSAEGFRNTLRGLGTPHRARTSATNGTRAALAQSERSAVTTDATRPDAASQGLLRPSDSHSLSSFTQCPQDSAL

[41] = Drug concentration in Sprague-Dawley rat at 0.1 mg/kg, po after 6 hrs by LC-MS/MS analysis; assay type: ADME, organism-based; details: in vivo, read-out: Drug uptake
[42] = Drug concentration in Sprague-Dawley rat at 3 mg/kg, po after 6 hrs by LC-MS/MS analysis; assay type: ADME, organism-based; details: in vivo, read-out: Drug uptake
[43] = Drug concentration in Sprague-Dawley rat at 10 mg/kg, po after 6 hrs by LC-MS/MS analysis; assay type: ADME, organism-based; details: in vivo, read-out: Drug uptake
Rattus norvegicus [44] = assay: Effect on po dosed Sprague-Dawley rat CFA inflammatory pain model assessed as reduction in LPA level administered day 2 post CFA challenge and measured after 6 hrs by LC-MS/MS analysis; details: dose 0.1-10 mg/kg

Question: With C[C@@H](c1ccc2ccc(O[C@H]3CC[C@@H](C(F)(F)F)CC3)c(C(F)(F)F)c2c1)N1C2CCC1CC(C(=O)O)C2 (some centres not stated) as the compound, how does the IC50 (Autotaxin) read?
Answer: 0.001 µM

Question: And the inhibition at 1 µM (hERG (KCNH2) [1])?
Answer: 1.4%

Question: And the inhibition at 10 µM (hERG (KCNH2) [2])?
Answer: 21.3%

Question: And the clearance [3]?
Answer: 29 mL/min/kg

Question: And the clearance [4]?
Answer: 1.7 mL/min/kg

Question: What about the clearance [5] of the same compound?
Answer: 9.3 mL/min/kg

Question: What about the Vd [6] of the same compound?
Answer: 2 L/kg

Question: What about the Vd [7] of the same compound?
Answer: 2.4 L/kg

Question: And the half-life [8]?
Answer: 3 h

Question: And the half-life [9]?
Answer: 14 h

Question: What about the AUC(0-t) at 24 h [10] of the same compound?
Answer: 594 ng·h/mL

Question: And the AUC(0-t) at 24 h [11]?
Answer: 1390 ng·h/mL

Question: And the AUC(0-t) at 24 h [12]?
Answer: 6590 ng·h/mL

Question: And the AUC(0-t) at 24 h [13]?
Answer: 369 ng·h/mL

Question: And the AUC(0-t) at 24 h [14]?
Answer: 614 ng·h/mL

Question: And the Cmax [15]?
Answer: 89 ng/mL

Question: What about the Tmax [16] of the same compound?
Answer: 1.6 h

Question: And the Tmax [17]?
Answer: 2 h

Question: And the bioavailability [18]?
Answer: 66%

Question: What about the bioavailability [19] of the same compound?
Answer: 34%

Question: And the Papp A→B at 2 h [20]?
Answer: 16.8 ×10⁻⁶ cm/s

Question: And the Fu [21]?
Answer: 0.66%

Question: And the IC50 (Cytochrome P450 2C19)?
Answer: > 10 µM

Question: What about the IC50 (Cytochrome P450 2C9) of the same compound?
Answer: > 10 µM

Question: What about the Kp at 4 h [22] of the same compound?
Answer: 0.2

Question: And the Vd [23]?
Answer: 2.36 L/kg

Question: And the AUC(0-t) at 24 h [24]?
Answer: 3020 ng·h/mL

Question: And the AUC(0-t) at 24 h [25]?
Answer: 12200 ng·h/mL

Question: What about the AUC(0-t) at 24 h [26] of the same compound?
Answer: 8840 ng·h/mL

Question: What about the Cmax [27] of the same compound?
Answer: 823 ng/mL

Question: And the Tmax [28]?
Answer: 3 h

Question: What about the Tmax [29] of the same compound?
Answer: 3 h

Question: What about the Tmax [30] of the same compound?
Answer: 7 h

Question: What about the Fu [31] of the same compound?
Answer: 0.599%

Question: And the Activity (Rattus norvegicus [32])?
Answer: 89%

Question: And the Activity (Rattus norvegicus [33])?
Answer: 48%

Question: And the Activity (Rattus norvegicus [34])?
Answer: 61%

Question: What about the concentration at 4 h [35] of the same compound?
Answer: 97 ng/mL

Question: What about the IC50 [36] of the same compound?
Answer: > 10 µM

Question: And the IC50 [37]?
Answer: > 10 µM

Question: And the IC50 [38]?
Answer: > 10 µM

Question: What about the IC50 [39] of the same compound?
Answer: > 10 µM

Question: And the IC50 [40]?
Answer: > 10 µM

Question: And the concentration at 6 h [41]?
Answer: 0.95 ng/mL

Question: And the concentration at 6 h [42]?
Answer: 42 ng/mL

Question: And the concentration at 6 h [43]?
Answer: 188 ng/mL

Question: And the Activity (Rattus norvegicus [44])?
Answer: Dose-Dependent Effect
